Data reported in patent publication US20190160035A1, “METHOD OF TREATMENT” (QBIOTICS LIMITED, priority 2016, published 2019).

Columns and labels:
[1] = system: cutaneous Mast Cell Tumor (MCT); experiment: Example 3: long term follow up of cohort 1 dogs for tumor recurrence; type: in vivo; on Tumor recurrence at case follow-up post treatment: key: Nil=no tumor recurrence
Procedure: The dogs of cohort 1 in Example 2, treated with 1.0 mg Compound 1 per mL, were followed up post-treatment.
Dog GCV-209 was treated by surgical removal of residual tumor soon after study completion (Day 21).

[2] = Example 5: adverse events (VCOG-CTCAE classification); type: in vivo, Canis lupus familiaris (dog)
Source text: With the exception of swelling and pain, local tissue pathology as a result of treatment (i.e. tumor necrosis) was not considered an adverse event (AE). AEs reported such as transitory post treatment lethargy, listlessness and apathy are generally considered to be the result of the powerful local inflammatory response and systemic activation of the dog's immune response during the treatment response phase. In this study, 72 AEs were identified in 14 event types (see Table 28). The majority of identified AEs (59 out of 72; 82%) were represented by the ‘mild’ VCOG-CTCAE classification Grade 1 with no intervention required. With the exception of dogs C05-T-04 and C05-T-17 (described previously), a level of minimal medical intervention was required in only 3 cases. Dog C05-T-05 was medicated with metronidazole for transient diarrhea reported on Day 14 post-treatment; dog C05-T-07 was medicated with an antibiotic course (amoxicillin/clavulanic acid) for skin pustulation on the ventral abdomen (distant to drug injection site); and dog C05-T-09 was prescribed a prophylactic antibiotic course (cephalexin) on Day 21 on observation by the referral practice of ‘inflamed and angry’ lesion edges and having an impression smear of wound surface with ‘neutrophils and round cells (without granules)’. These findings for dog C05-T-09 of neutrophil presence is perhaps not unexpected due to the mechanism of action of the drug. The dog was reported having normal demeanour at this time. With the exception of the limb swelling in dog C05-T-17 (degranulation reaction), all reported AEs were transient in nature—resolved by 24-48 h post treatment.

## C/C=C(\C)C(=O)O[C@@H]1[C@@H](C)[C@@]2(O)[C@H]([C@@H]3C(C)(C)[C@]13OC(=O)[C@@H](C)CC)[C@@H]1O[C@]1(CO)[C@@H](O)[C@]1(O)C(=O)C(C)=C[C@H]12 [Compound 1, 12-tigloyl-13-(2-methylbutanoyl)-6,7-epoxy-4,5,9,12,13,20-hexahydroxy-1-tigliaen-3-one]
[1]; 8 dogs, examined out to 11.9 to 15.0 months post treatment
  Tumor recurrence at the treatment site during the post treatment examination period: No tumor recurrence
[1]; cohort 1 dogs (1.0 mg/mL), one value per dog and examination, months 1-14 post treatment
  Tumor recurrence at case follow-up post treatment: Nil
[1]; dog NVC-110, 42 days after study completion
  Day on which tumor recurrence was reported: 63 days
[2]; 18 cases, 14 event types
  Number of AEs identified: 72
[2]; 59 out of 72
  Share of AEs of VCOG-CTCAE Grade 1: 82%
[2]; Grade 1
  Apathy: VCOG-CTCAE Grade classification (no. of animals): 1 (2)
  Bruising at treatment site: VCOG-CTCAE Grade classification (no. of animals): 1 (13)
  Inappetance: VCOG-CTCAE Grade classification (no. of animals): 1 (6)
  Lethargy: VCOG-CTCAE Grade classification (no. of animals): 1 (5)
  Listless: VCOG-CTCAE Grade classification (no. of animals): 1 (2)
  Local swelling at treatment site: VCOG-CTCAE Grade classification (no. of animals): 1 (17)
  Pain associated with treatment site: VCOG-CTCAE Grade classification (no. of animals): 1 (12)
  Polydipsia: VCOG-CTCAE Grade classification (no. of animals): 1 (1)
  Ringworm: VCOG-CTCAE Grade classification (no. of animals): 1 (1)
  Transient Diarrhoea: VCOG-CTCAE Grade classification (no. of animals): 1 (1)
  Vomiting: VCOG-CTCAE Grade classification (no. of animals): 1 (2)
[2]; Grade 2
  Bruising at treatment site: VCOG-CTCAE Grade classification (no. of animals): 2 (1)
  Cranial abdominal pain: VCOG-CTCAE Grade classification (no. of animals): 2 (1)
  Inappetance: VCOG-CTCAE Grade classification (no. of animals): 2 (1)
  Injection site lesion antimicrobial prophylaxis: VCOG-CTCAE Grade classification (no. of animals): 2 (1)
  Lethargy: VCOG-CTCAE Grade classification (no. of animals): 2 (1)
  Local swelling at treatment site: VCOG-CTCAE Grade classification (no. of animals): 2 (1)
  Pain associated with treatment site: VCOG-CTCAE Grade classification (no. of animals): 2 (1)
  Skin pustulation: VCOG-CTCAE Grade classification (no. of animals): 2 (1)
  Transient Diarrhoea: VCOG-CTCAE Grade classification (no. of animals): 2 (1)
  Vomiting: VCOG-CTCAE Grade classification (no. of animals): 2 (1)
[2]; all dogs (18 cases)
  Apathy: Incidence (%): 11.1%
  Apathy: No. of dogs experiencing this event: 2
  Bruising at treatment site: Incidence (%): 77.8%
  Bruising at treatment site: No. of dogs experiencing this event: 14
  Cranial abdominal pain: Incidence (%): 5.6%
  Cranial abdominal pain: No. of dogs experiencing this event: 1
  Inappetance: Incidence (%): 38.9%
  Inappetance: No. of dogs experiencing this event: 7
  Injection site lesion antimicrobial prophylaxis: Incidence (%): 5.6%
  Injection site lesion antimicrobial prophylaxis: No. of dogs experiencing this event: 1
  Lethargy: Incidence (%): 33.3%
  Lethargy: No. of dogs experiencing this event: 6
  Listless: Incidence (%): 11.1%
  Listless: No. of dogs experiencing this event: 2
  Local swelling at treatment site: Incidence (%): 100.0%
  Local swelling at treatment site: No. of dogs experiencing this event: 18
  Pain associated with treatment site: Incidence (%): 72.2%
  Pain associated with treatment site: No. of dogs experiencing this event: 13
  Polydipsia: Incidence (%): 5.6%
  Polydipsia: No. of dogs experiencing this event: 1
  Ringworm: Incidence (%): 5.6%
  Ringworm: No. of dogs experiencing this event: 1
  Skin pustulation: Incidence (%): 5.6%
  Skin pustulation: No. of dogs experiencing this event: 1
  Transient Diarrhoea: Incidence (%): 11.1%
  Transient Diarrhoea: No. of dogs experiencing this event: 2
  Vomiting: Incidence (%): 16.7%
  Vomiting: No. of dogs experiencing this event: 3
[2]; except limb swelling in dog C05-T-17
  Time by which reported AEs resolved post treatment: 24 to 48 h
[2]; out of 72 AEs
  Number of AEs of ‘mild’ VCOG-CTCAE Grade 1 (no intervention required): 59
[2]; with the exception of dogs C05-T-04 and C05-T-17
  Cases requiring minimal medical intervention: 3
